The record followed here is ChEMBL document CHEMBL3817845, “Development of CNS multi-receptor ligands: Modification of known D2 pharmacophores” (Bioorg Med Chem, 2016).

For series [1], the target named is T1, D(3) dopamine receptor (Homo sapiens, UniProt P35462). Description: Displacement of [3H]N-methylspiperone from human recombinant dopamine D3 receptor incubated for […] by microbeta scintillation counting method.
Series [2] concerns the target D(2) dopamine receptor (Homo sapiens, UniProt P14416). Kind of series: Displacement of [3H]N-methylspiperone from human recombinant dopamine D2 receptor incubated for […] by microbeta scintillation counting method.
Series [3] has as its target T2, D(4) dopamine receptor (Homo sapiens, UniProt P21917).
T2 sequence (P21917 whole entry): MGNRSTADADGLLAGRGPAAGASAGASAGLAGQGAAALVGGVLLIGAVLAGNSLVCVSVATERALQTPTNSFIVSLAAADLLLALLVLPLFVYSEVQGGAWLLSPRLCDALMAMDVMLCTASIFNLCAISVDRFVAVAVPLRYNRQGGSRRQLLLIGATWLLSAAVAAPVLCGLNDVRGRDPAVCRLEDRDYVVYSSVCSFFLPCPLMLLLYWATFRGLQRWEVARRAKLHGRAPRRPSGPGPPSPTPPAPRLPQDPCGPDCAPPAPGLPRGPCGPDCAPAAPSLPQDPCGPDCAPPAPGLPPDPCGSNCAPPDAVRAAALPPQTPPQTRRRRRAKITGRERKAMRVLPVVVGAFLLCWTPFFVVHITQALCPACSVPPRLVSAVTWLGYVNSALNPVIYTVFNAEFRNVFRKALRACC
Description: Displacement of [3H]N-methylspiperone from human recombinant dopamine D4 receptor incubated for […] by microbeta scintillation counting method.

Series [4] has as its target T3, 5-hydroxytryptamine receptor 1A (Homo sapiens, UniProt P08908).
T3 sequence (P08908 whole entry): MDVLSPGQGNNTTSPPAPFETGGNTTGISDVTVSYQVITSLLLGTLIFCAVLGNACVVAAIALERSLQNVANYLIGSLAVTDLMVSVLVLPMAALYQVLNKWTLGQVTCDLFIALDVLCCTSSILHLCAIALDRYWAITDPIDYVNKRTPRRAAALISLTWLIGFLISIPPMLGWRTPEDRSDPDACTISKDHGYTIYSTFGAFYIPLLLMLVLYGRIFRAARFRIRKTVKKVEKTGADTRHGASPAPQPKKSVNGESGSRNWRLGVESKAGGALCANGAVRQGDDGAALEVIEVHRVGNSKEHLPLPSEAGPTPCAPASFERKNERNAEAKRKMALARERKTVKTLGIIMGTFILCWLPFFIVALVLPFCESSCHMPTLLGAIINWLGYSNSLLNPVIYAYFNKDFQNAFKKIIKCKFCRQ
Kind of series: (§1) Displacement of [3H]8-OH-DPAT from human recombinant 5HT1A receptor incubated for […] by microbeta scintillation counting method.

The target in series [5] is T4, 5-hydroxytryptamine receptor 2A (Homo sapiens, UniProt P28223). Kind of series: Displacement of [3H]Ketanserin from human recombinant 5HT2A receptor incubated for […] by microbeta scintillation counting method.
T4 sequence (P28223 whole entry): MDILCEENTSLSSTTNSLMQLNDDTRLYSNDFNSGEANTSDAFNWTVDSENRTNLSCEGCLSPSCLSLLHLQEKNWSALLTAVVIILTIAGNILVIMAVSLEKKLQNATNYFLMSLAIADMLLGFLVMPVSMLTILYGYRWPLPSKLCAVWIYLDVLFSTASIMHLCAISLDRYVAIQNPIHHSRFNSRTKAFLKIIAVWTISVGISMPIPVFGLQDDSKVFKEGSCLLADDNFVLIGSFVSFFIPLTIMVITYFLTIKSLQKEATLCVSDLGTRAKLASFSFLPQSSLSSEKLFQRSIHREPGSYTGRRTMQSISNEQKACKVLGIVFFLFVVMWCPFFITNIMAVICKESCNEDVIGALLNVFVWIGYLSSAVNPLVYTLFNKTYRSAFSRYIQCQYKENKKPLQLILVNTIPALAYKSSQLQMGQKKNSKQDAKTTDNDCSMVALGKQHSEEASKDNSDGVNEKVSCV
Series [6] concerns the target 5-hydroxytryptamine receptor 7 (Homo sapiens, UniProt P34969). Kind of series: Displacement of [3H]LSD from human recombinant 5HT7 receptor incubated for […] by microbeta scintillation counting method.
Series [7] concerns the target T5, 5-hydroxytryptamine receptor 2C (5HT2C) (Homo sapiens, UniProt P28335).
T5 sequence (P28335 whole entry): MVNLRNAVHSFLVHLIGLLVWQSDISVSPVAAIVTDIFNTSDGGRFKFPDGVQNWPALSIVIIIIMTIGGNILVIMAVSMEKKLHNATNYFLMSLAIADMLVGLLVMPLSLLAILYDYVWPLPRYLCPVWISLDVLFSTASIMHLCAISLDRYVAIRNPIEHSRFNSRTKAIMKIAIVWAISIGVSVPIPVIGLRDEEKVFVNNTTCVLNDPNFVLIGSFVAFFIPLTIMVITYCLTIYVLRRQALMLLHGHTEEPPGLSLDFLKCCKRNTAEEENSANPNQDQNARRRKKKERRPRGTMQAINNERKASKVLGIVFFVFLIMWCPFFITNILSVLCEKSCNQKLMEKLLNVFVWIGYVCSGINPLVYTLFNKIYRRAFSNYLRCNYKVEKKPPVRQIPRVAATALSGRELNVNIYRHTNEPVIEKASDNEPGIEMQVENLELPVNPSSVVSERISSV
Kind of series: (§2) Displacement of [3H]Mesulergine from human recombinant 5HT2C receptor incubated for […] by microbeta scintillation counting method. Particulars: human, recombinant 5HT2C receptor, probe [3H]Mesulergine.

Series [8] concerns the target 5-hydroxytryptamine receptor 2B (Homo sapiens, UniProt P41595). Description: Displacement of [3H]LSD from human recombinant 5HT2B receptor incubated for […] by microbeta scintillation counting method.
In series [9] the target is T6, 5-hydroxytryptamine receptor 2C (Homo sapiens, UniProt P28335).
T6 sequence (P28335 whole entry): T5 sequence (P28335 whole entry)
Described as §2.

Series [10] deals with Sodium-dependent serotonin transporter (Homo sapiens, UniProt P31645). Kind of series: Displacement of [3H]Citalopram from human recombinant SERT incubated for […] by microbeta scintillation counting method.
The target of series [11] is Histamine H1 receptor (Homo sapiens, UniProt P35367). Description: Displacement of [3H]Pyrilamine from human recombinant histamine H1 receptor incubated for […] by microbeta scintillation counting method.
Chain of Histamine H1 receptor (P35367 whole entry): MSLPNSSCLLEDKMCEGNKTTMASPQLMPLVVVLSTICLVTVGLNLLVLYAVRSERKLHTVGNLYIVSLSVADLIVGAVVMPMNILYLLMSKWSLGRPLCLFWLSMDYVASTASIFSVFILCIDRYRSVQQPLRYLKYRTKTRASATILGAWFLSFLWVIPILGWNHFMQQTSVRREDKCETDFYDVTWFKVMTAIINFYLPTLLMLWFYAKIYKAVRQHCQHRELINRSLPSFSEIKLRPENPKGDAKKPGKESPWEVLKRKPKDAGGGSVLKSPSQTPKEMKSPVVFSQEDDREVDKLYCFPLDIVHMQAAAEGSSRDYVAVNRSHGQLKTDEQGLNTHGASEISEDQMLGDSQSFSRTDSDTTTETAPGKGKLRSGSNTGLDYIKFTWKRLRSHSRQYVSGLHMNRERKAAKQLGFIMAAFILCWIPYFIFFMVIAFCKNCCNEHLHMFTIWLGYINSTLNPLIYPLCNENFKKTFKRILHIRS
The nature of series [12]: Lipophilicity, log P of the compound. The format is physicochemical. Particulars: octanol/water.
The target of series [13] is T1, D(3) dopamine receptor. Description: Displacement of [125I]-IABN from human recombinant dopamine D3 receptor expressed in HEK293 cell membrane incubated for 60 mins filtration binding assay.
Series [14] addresses T4, 5-hydroxytryptamine receptor 2A. Kind of series: Binding affinity to 5HT2A receptor (unknown origin).
The target in series [15] is T7, 5-hydroxytryptamine receptor 1A (Homo sapiens) (UniProt P08908).
T7 sequence (whole entry): T3 sequence (P08908 whole entry)
The description is as §1.

Chain of D(2) dopamine receptor (P14416 whole entry): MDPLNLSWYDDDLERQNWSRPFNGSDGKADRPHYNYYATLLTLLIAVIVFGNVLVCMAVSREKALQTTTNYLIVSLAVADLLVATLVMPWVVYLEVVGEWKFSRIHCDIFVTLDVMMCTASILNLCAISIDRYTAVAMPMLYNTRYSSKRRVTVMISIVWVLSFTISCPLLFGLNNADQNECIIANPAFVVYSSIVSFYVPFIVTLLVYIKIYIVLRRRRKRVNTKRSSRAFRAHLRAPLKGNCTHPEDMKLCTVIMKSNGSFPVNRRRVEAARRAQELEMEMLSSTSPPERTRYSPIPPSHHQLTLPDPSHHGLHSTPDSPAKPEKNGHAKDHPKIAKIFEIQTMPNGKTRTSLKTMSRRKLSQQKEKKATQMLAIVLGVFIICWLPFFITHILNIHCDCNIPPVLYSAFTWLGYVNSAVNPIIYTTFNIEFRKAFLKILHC
T1 sequence (P35462 whole entry): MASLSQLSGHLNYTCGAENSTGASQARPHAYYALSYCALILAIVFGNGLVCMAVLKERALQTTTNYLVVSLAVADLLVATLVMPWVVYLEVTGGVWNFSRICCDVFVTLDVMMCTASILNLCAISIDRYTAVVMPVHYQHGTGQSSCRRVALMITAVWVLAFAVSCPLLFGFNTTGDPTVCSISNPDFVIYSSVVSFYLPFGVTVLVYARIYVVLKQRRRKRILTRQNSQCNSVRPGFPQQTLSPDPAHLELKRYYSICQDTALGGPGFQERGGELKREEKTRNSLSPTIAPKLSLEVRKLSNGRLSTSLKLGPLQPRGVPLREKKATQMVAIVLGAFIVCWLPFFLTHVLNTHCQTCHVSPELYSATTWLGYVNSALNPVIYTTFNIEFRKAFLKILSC
Chain of 5-hydroxytryptamine receptor 7 (P34969 whole entry): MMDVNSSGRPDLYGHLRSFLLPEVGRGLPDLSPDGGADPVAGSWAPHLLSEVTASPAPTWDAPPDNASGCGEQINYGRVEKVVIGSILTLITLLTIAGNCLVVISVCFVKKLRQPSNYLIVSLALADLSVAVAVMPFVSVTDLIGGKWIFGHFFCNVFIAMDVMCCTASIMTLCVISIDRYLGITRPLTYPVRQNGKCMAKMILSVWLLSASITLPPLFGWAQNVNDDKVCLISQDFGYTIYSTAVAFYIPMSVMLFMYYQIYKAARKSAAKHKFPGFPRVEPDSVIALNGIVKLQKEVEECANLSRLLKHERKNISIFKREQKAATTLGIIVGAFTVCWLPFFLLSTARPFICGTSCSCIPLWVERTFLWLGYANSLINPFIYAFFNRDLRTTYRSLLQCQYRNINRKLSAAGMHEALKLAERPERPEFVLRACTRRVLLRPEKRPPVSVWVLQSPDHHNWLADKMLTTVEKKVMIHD
Chain of 5-hydroxytryptamine receptor 2B (P41595 whole entry): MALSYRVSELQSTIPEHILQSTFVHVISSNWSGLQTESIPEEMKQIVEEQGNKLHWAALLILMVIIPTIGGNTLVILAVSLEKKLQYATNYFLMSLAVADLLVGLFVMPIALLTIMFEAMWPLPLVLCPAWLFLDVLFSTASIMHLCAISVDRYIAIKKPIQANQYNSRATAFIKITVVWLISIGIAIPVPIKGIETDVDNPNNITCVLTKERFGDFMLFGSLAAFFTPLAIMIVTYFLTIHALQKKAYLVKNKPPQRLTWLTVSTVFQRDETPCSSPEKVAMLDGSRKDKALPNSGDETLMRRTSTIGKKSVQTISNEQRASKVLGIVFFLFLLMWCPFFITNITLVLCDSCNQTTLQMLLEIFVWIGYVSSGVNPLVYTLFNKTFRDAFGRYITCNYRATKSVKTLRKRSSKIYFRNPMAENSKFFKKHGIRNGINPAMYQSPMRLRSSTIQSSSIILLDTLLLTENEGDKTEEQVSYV

With `OC1(c2ccc(Cl)cc2)CCN(CCCCc2nc3ccccc3s2)CC1`, the Ki in series [1] worked out at 0.291 µM.

As to `O=C(CCCCN1CCC(n2c(=O)[nH]c3cc(Cl)ccc32)CC1)c1nc2ccccc2s1`, the Ki in series [1] stood at 0.064 µM.

As to `OC1(c2ccc(Cl)cc2)CCN(CCCc2nc3ccccc3s2)CC1`, the Ki in series [2] stood at 0.763 µM; in series [1], 0.028 µM; in series [3] it was 0.163 µM; in [4], 0.034 µM; in series [5], 0.168 µM; in series [6], 0.189 µM.

On to `O=C(CCCCN1CCC2(CC1)C(=O)NCN2c1ccccc1)c1nc2ccccc2s1`, for which the Ki is 0.018 µM in [1] and 0.162 µM in series [3]. Further, the inhibition at […] in series [7] was less than 50%.

As to `OC1(c2ccc(Cl)cc2)CCN(CCCCc2nc3ccccc3o2)CC1`, the Ki in series [2] came to 0.438 µM; in [1] it was 0.942 µM; in [3] it was 0.229 µM; in series [4], 3.15 µM; in [5] it was 5.97 µM. Also, in series [6], the inhibition was less than 50%.

Take `O=C1NCN(c2ccccc2)C12CCN(CCCCc1nc3cc(Cl)ccc3s1)CC2`: the Ki in [2] came to 0.018 µM; in [1], 0.499 µM; in [4], 0.102 µM; in series [8], 0.036 µM; in series [9], 0.614 µM; in series [10] (read-out: Ki), 3.06 µM. Also, the Ki in series [11] (read-out: Ki) was 0.263 µM; in [11] (read-out: pKi (converted)), 0.275 µM.

Consider `O=C(CCCN1CCC(O)(c2ccc(Cl)cc2)CC1)c1ccc(F)cc1` [HALOPERIDOL], for which the logP in [12] came out at 3.49.

Turning to `O=C(CCCN1CCC(n2c(O)nc3ccccc32)CC1)c1ccc(F)cc1` [BENPERIDOL], the values for the Ki in series [13] and in series [14] were 0.00029 µM and 0.0012 µM, respectively.

Turning to `Cl.O=C(CCCCN1C2CCC1CC(O)(c1ccc(Cl)cc1)C2)c1nc2ccccc2s1` (stereo not drawn), the pKi in series [2] worked out at 6.74. Moreover, the inhibition in series [15] and in [5] was less than 50% each time. Moreover, the Ki in series [6] is 0.08 µM; in series [8] it was 0.758 µM; in [10] (read-out: Ki), 0.054 µM; in series [10] (read-out: pKi (converted)), 0.00468 µM; in series [11] (read-out: Ki), 1.03 µM. In addition, in series [7], the inhibition at […] was less than 50%.

For the compound `O=C1NCN(c2ccccc2)C12CCN(CCCCc1nc3ccccc3o1)CC2`, the Ki in [2] was 0.01 µM; in [1] it was 0.021 µM; in series [3], 0.118 µM; in [4] it was 0.382 µM; in series [6] it was 1.51 µM; in [8], 0.905 µM. Further, the Ki in series [11] (read-out: Ki) amounted to 0.535 µM. Also, the inhibition in series [5] and in [10] was less than 50% in each case. Further, in [7], the inhibition at […] is less than 50%.

As to `OC1(c2ccc(Cl)cc2)CC2CCC(C1)N2CCCCc1nc2ccccc2s1` (stereo not drawn), the Ki in series [6] turned out to be 1.01 µM; in series [8] it was 0.342 µM; in series [10] (read-out: Ki), 0.18 µM.

Consider `O=C(CCCN1CCC2(CC1)C(=O)NCN2c1ccccc1)c1ccc(F)cc1` [SPIPERONE], for which the logP in series [12] stood at 2.78.

On to `Fc1ccc(C(c2ccc(F)cc2)N2CCN(CCCCc3nc4ccccc4s3)CC2)cc1`, for which the Ki in [2] came out at 0.195 µM; in [1], 0.033 µM; in series [3], 0.068 µM; in series [5], 0.519 µM; in [6], 0.778 µM. Also, the inhibition in series [15] was less than 50%.

Turning to `O=C1NCN(c2ccccc2)C12CCN(CCCCc1c[nH]c3ccccc13)CC2`, the Ki in series [1] is 0.031 µM; in [3], 0.0016 µM; in [4], 0.376 µM; in series [6] it was greater than 10 µM; in series [8], 0.202 µM; in series [10] (read-out: Ki), 0.01 µM. Also, the figures for the Ki in series [10] (read-out: pKi (converted)) and in series [11] (read-out: Ki) were 0.00468 µM and 0.273 µM, respectively. Further, the inhibition at […] in [7] is less than 50%. In series [12], this compound showed a logP of 3.52.

As to `O=C1NCN(c2ccccc2)C12CCN(CCCCc1nc3ccccc3s1)CC2`, the Ki in [2] is 0.024 µM; in [1], 0.032 µM; in series [3], 0.132 µM; in series [4] it was 0.195 µM; in series [5], greater than 10 µM; in series [6], 0.626 µM. Also, the Ki in series [8] came to 0.122 µM; in [11] (read-out: Ki), 0.504 µM. Besides, the inhibition at […] in series [7] is less than 50%. Also, the inhibition in series [10] is less than 50%.

Regarding `O=C(CCCCN1CCN(C(c2ccc(F)cc2)c2ccc(F)cc2)CC1)c1nc2ccccc2s1`, the Ki in series [2] is 0.159 µM; in series [1] it was 0.233 µM; in series [3] it was 1.22 µM; in series [5] it was 1.08 µM; in series [6] it was 0.562 µM. Also, the inhibition in [15] is less than 50%.
